“And” between values parts separate entries of the source, which are not always exact repeats. Identical values can stand only once. “Also recorded” adds a separate entry of the source.
What was measured:
[1] = test system: rat paw incision model; experiment: Rat paw incision model, postsurgical thermal hyperalgesia (thermal paw withdrawal latency); format: in vivo; details: for ED10 / ED20 / ED50: analgesic intensity, thermal hyperalgesia; for ED50: 5 minute intraoperative instillation
Method: (§1) Male Sprague-Dawley rats (Chrales River Laboratories, Inc., Wilimington, Mass., 225-250 g) were anesthetized with 2% isoflurane delivered via nose cone. Ten to 15 minutes before surgery, 100 μL of 2% lidocane was injected in the plantar surface of the right hind paw. A 1 centimeter incision (number 15 scalpel blade) was make through the skin, muscle, and fascia of the anesthetized paw, starting 5 mm from the proximal edge of the heel and extending toward the toes. After elevating the incised tissue, 20 μL of capsaicin formulation or vehicle were instilled into the surgical incision, allowed to dwell for pre-specified times, and then removed via aspiration using a cotton swab. The incision was apposed with 4 single interrupted mattress sutures of 5-0 nylon thread.
(§2) Animals were tested on the day before surgery (baseline) and on days 1, 2, 3, and 6 after surgery. Thermal sensitivity was assessed by thermal paw withdrawal latency as described by Hargreaves et al. (Hargreaves et al., J. Pain 32:77-88 (1988)). Mechanical hyperalgesia was assessed by the “up-down” algorithm of Chaplan et al. (Chaplan et al., J. Neurosci. Methods 53:55-63 (1994)).
(§3) In this study, animals in the active treatment groups received an intraoperative instillation of capsaicin (5 μg per 20 μL 50% PEG-300) for the designated times. Animals in the control groups received 20 μL of 50% PEG-300 for 5 minutes (vehicle) or no intraoperative treatment (sham). Graph points represent mean values; error bars are ±SEM.
(§4) In the study, animals in the active treatment groups received 5 minute intraoperative instillations of capsaicin formulation (1.5 μg to 150 μg per 20 μL of 50% PEG-300). Animals in the control groups received 5 minute intraoperative instillations of 20 μL of 50% PEG-300 (vehicle) or 5 minute intraoperative instillations of 20 μL of 50% PEG-300 plus subcutaneous buprenorphine (50 μg/kg) 1 hour before behavioral testing (Bup). Bars represent mean values; error bars are ±SEM.
The experimental data from FIG. 2 were used to calculate analgesic intensity (AI) as follows: AI(%)=100×([PWLtreat−PWLbasal]/[cut-off−PWLbasal]), where PWLtreat was the paw withdrawal latency after capsaicin treatment, PWLbasal was the paw withdrawal latency on day 1 after vehicle treatment, and cut-of was 20 seconds. […] (CI=confidence interval)

[2] = test system: rat paw incision model; experiment: Rat paw incision model, postsurgical mechanical hyperalgesia (paw withdrawal threshold, up-down); format: in vivo
Method: as §1, §2
as §3, with “(vehicle).” for “(vehicle) or no intraoperative treatment (sham).”
as §4, with “In this” for “In the”, “capsaicin (5, 15, or 75” for “capsaicin formulation (1.5 μg to 150”, “or subcutaneous injection” for “or 5 minute intraoperative instillations”, “of” for “of 20 μL of 50% PEG-300 plus subcutaneous”
In this study, animals in the active treatment groups received 5 minute intraoperative instillations of capsaicin (5, 15, or 75 μg per 20 μL of 50% PEG-300). Animals in the control groups received 5 minute intraoperative instillations of 20 μL of 50% PEG-300 (vehicle). Graph points represent mean values; error bars are ±SEM.

[3] = cited from earlier work
[4] = test system: sciatic nerve; experiment: Extrafascicular instillation on sciatic nerve: body weight, behavioral testing, nerve histology; format: in vivo, rat
Method: (§5) Adult CD Charles River rats were anesthetized with isoflurane and oxygen. Extrafascicular instillation: The sciatic nerve was exposed by blunt dissection and 100 μl of test article was applied directly to the sciatic nerve). Treatment groups received either vehicle (25% PEG 300), 0.0083 mg capsaicin (≧98% pure) or 0.025 mg capsaicin dissolved in vehicle. […] Osteotomy: The lateral aspect of the right femur was exposed and cut at the midshaft using an oscillating saw. An intramedullary Kirshner wire was inserted for fracture reduction and the osteotomy site irrigated with 100 μl of the vehicle (20% PEG 300, 10 mM histidine and 5% (w/v) sucrose) or 0.5 mg capsaicin diluted in vehicle.
Behavioral testing: Individual rats were placed in a black plexiglass observation box and parameters including posture, rearing, vocalization, bizarre behavior, mobility, and stereotypy were evaluated based on the methods of Moser et al. (Moser et al., Fundam. Appl. Toxicol. 11: 189-206 (1988)). Forelimb and hindlimb grip strength was measured using a strain gauge that recorded the maximum force in Kg as described by Meyer (Meyer et al. Neurobehav. Toxicol. 1:233-236 (1979) and Meyer and Ross (1966) U.S. Environmental Protection Agency, Wasington, D.C.) Hindlimb splay was quantitatively measured as described by Edwards et al. (Edwards et al., Toxicol Appl. Pharmacol. 40:589-591 (1977)). Thermal response was measured using the hot plate test as previously described by Ankier (Aniker Eur. J. Pharmacol. 27:1-4 (1974). The hot plate was set at 52° C. and the latency between placement of the animal on the heated surface and the first paw lick was recorded. The test was administered three times at predose and at days 3, 14 and 28 post-surgery and the values averaged.
(§6) Histology: Rats were euthanized by intraperitoneal injection of sodium pentobarbital (90 mg/Kg) followed by transcardiac perfusion with 0.9% saline then 3% paraformaldehyde and 3% glutaraldehyde in 0.1 M phosphate buffer. The entire length of sciatic nerve was embedded in paraffin or plastic and representative sections were taken from the treatment site and proximal and distal sites and stained with hematoxylin and eosin (H&E). Sections were scored for neuronal and myelin integrity, appearance and inflammation.
(§7) Statistics: Levene's test was used to assess homogeneity of group variances for each specified end point and for each data collection interval. If Levene's test was not significant (P>0.01), a pooled estimate of the variance (Means Square Error) was computed from a one-way analysis of variance (ANOVA) and utilized by Dunnett's comparison of each treatment group with the control group. If Levene's test was significant (P<0.01), comparisons with the control group were made using Welch's t-test with a Bonferroni correction.

[5] = test system: osteotomy site; experiment: Femur osteotomy: histology and biomechanical testing (4-point bending); format: in vivo, rat
Method: as §5, §6
Biomechanical Testing: Both osteotomized and contralateral whole femurs were tested in 4-point bending with a servohydrolic material test system (858 Mini Bionix) to determine the material properties of the cortical bone. Peak load, energy to break (area under the curve) and stiffness were derived. Peak load was measured as the maximum height of the load-displacement curve, and stiffness was measured as the slope of the linear portion of the load-displacement curve.
as §7

[6] = intraoperative instillation, rat paw incision model
[7] = 0.5 mg, right femur, vs vehicle (FIG. 14)

For `COc1cc(CNC(=O)CCCC/C=C/C(C)C)ccc1O` [capsaicin, N-(4-hydroxy-3-methoxybenzyl)-8-methylnon-trans-6-enamide], the “dose dependence of reduction of postsurgical thermal hyperalgesia” value ([1]; 1.5 μg to 150 μg per 20 μL 50% PEG-300, 5 minute instillation (FIG. 2)) was “dose-dependant; also recorded: dose-dependent”, the “postsurgical thermal hyperalgesia (PWL)” value ([1]; 5 μg per 20 μL 50% PEG-300, instillation 5 or 10 minutes, post-surgical days 1, 2, 3, vs vehicle and sham (FIG. 1)) was “significantly lower thermal hyperalgesia; also recorded: reduces postsurgical thermal hyperalgesia” and the ED10 ([1]; day 1 after surgery) was 3.46 µg. For the same molecule, the ED20 ([1]; day 1 after surgery) was 7.77 µg, the ED50 ([1]; day 1 after surgery) was 31.01 µg and the ED10 ([1]; day 2 after surgery) was 2.99 µg. The ED20 ([1]; day 2 after surgery) was 8.38 µg, the ED50 ([1]; day 2 after surgery) was 48.53 µg and the ED10 ([1]; day 3 after surgery) was 1.84 µg. For the same molecule, the ED20 ([1]; day 3 after surgery) was 6.09 µg, the ED50 ([1]; day 3 after surgery) was 47.09 µg and 47.08 µg and the “duration of sustained analgesia” value [1, 6] was “up to 6 days”. The “potency against thermal versus mechanical hyperalgesia” value [1, 6] was “higher potency against postsurgical thermal hyperalgesia than mechanical hyperalgesia”, the “postsurgical mechanical hyperalgesia (PWT)” value ([2]; 5 μg per 20 μL 50% PEG-300, designated dwell times (FIG. 4)) was “did not reduce postsurgical mechanical hyperalgesia; also recorded: does not reduce postsurgical mechanical hyperalgesia” and the “postsurgical mechanical hyperalgesia (PWT)” value ([2]; 75 μg, 5 minute instillation, vs vehicle (FIG. 5)) was “produced significant analgesic effects relative to vehicle; also recorded: reduces postsurgical mechanical hyperalgesia”. The “postsurgical mechanical hyperalgesia (PWT) over time” value ([2]; 75 μg, 5 minute instillation, vs vehicle, days 1 and 3 (FIG. 6)) was “greater after an instillation of 75 μg capsaicin formulation than vehicle; also recorded: reduces postsurgical mechanical hyperalgesia”, the “dose dependence of reduction of postsurgical mechanical hyperalgesia” value ([2]; 5, 15 or 75 μg per 20 μL 50% PEG-300, 5 minute instillation (FIG. 5)) was “dose-dependant” and the “solubility in organic solvents” value ([3]; alcohol, ether, benzene and chloroform) was “freely soluble”. The solubility in water ([3]; water) was “practically insoluble”, the “sciatic nerve histology (H&E), appearance” value ([4]; 0.025 mg extrafascicular instillation, 3 days or 28 days post treatment, vs sham operated (FIG. 12)) was “no difference in appearance” and the activity/arousal ([4]; extrafascicular instillation (FIG. 8)) was “does not effect activity/arousal”. For the same molecule, the hindpaw splay ([4]; extrafascicular instillation (FIG. 10)) was “no effect on hindpaw splay”, the “thermal withdrawal (hot plate, 52° C.)” value ([4]; extrafascicular instillation (FIG. 11)) was “no effect on thermal withdrawal” and the “adverse effects on structural integrity of exposed nerve” value ([4]; extrafascicular instillation, summary) was “no observable adverse effects”. The weight gain ([4]; extrafascicular instillation, first 10 post-operative days, vs sham-operated rats (FIG. 7)) was “reduces weight gain”, the hindpaw grip strength ([4]; extrafascicular instillation, post operative days 3 and 14 (FIG. 9)) was “decreases hindpaw grip strength” and the “osteotomy site histology (H&E)” value ([5]; 0.5 mg vs vehicle (FIG. 13)) was “show no differences”. The “general integrity of bone structure (AUC, energy to break)” value [5, 7] was “no difference”, the peak load [5, 7] was “no difference” and the stiffness [5, 7] was “no difference”. The “adverse effects on wound and bone healing following osteotomy” value ([5]; instillation, summary) was “no observable adverse effects”.

From patent US8158682B2, “Instillation administration of capsaicinoids for the treatment of pain” (Vallinex, Inc., priority 2008, dated 2012)
